Reference: ChEMBL document CHEMBL4011644, “3-Hydroxy-N'-arylidenepropanehydrazonamides with Halo-Substituted Phenanthrene Scaffolds Cure P. berghei Infected Mice When Administered Perorally” (J Med Chem, 2017)
Activity calls are given as the source filed them. The calls are words filed in the database; no cut-off is given here.

test system: Plasmodium berghei; test: […] activity against GFP-fused Plasmodium berghei liver stage parasites infected in human HepG2-A16-CD81-EGFP cells after 48 hrs by luciferase reporter gene assay; assay type: functional; conditions: not given

| Compound | IC50 [µM] |
| --- | --- |
| CCN(CC)Cc1cc(/C=N/N=C(\N)CC(O)c2cc3c(Cl)cc(Cl)cc3c3cc(C(F)(F)F)ccc23)ccc1O (configuration not stated) | 19.1 |
| CCN(CC)Cc1cc(/C=N/N=C(\N)CC(O)c2cc3c(F)cc(F)cc3c3cc(C(F)(F)F)ccc23)ccc1O (configuration not stated) | 5.2 |

test system: Plasmodium falciparum; test: Gametocytocidal activity against transgenic GFP-fused Plasmodium falciparum NF54 […] stage gametocytes after 72 hrs by Mitotracker Red CMH2XRos staining based confocal microscopic method; assay type: functional; conditions: NF54, 72 h

| Compound | IC50 [nM] |
| --- | --- |
| CCN(CC)Cc1cc(/C=N/N=C(\N)CC(O)c2cc3c(Cl)cc(Cl)cc3c3cc(C(F)(F)F)ccc23)ccc1O (configuration not stated) | 345 |
| CCN(CC)Cc1cc(/C=N/N=C(\N)CC(O)c2cc3c(F)cc(F)cc3c3cc(C(F)(F)F)ccc23)ccc1O (configuration not stated) | 110 |

test system: Plasmodium berghei; test: Antiplasmodial activity against Plasmodium berghei infected in NMRI mouse assessed as reduction in parasitemia at 30 mg/kg, po administered at 4, 24, 48, 72 hrs post infection measured on day 4 by Peter's test relative to control; assay type: functional; parameters: scale not given: the % may be the effect or the level left; conditions: not given

| Compound | Activity [%] |
| --- | --- |
| C[C@H]1[C@H](OC(=O)CCC(=O)O)O[C@@H]2O[C@@]3(C)CC[C@H]4[C@H](C)CC[C@@H]1[C@@]24OO3 [ARTESUNATE] | 99 |
| CCN(CC)Cc1cc(/C=N/N=C(\N)CC(O)c2cc3c(F)cc(F)cc3c3cc(C(F)(F)F)ccc23)ccc1O (configuration not stated) | 99.9 |

test system: Mus musculus; test: Toxicity in NMRI mouse infected with Plasmodium berghei assessed as overt toxicity at 50 mg/kg, ip administered at 4, 24, 48, 72 hrs post infection; assay type: organism-based; conditions: in vivo

| Compound | Activity |
| --- | --- |
| CCN(CC)Cc1cc(/C=N/N=C(\N)CC(O)c2cc3c(Cl)cc(Cl)cc3c3cc(C(F)(F)F)ccc23)ccc1O (configuration not stated) | Non-Toxic |
| CCN(CC)Cc1cc(/C=N/N=C(\N)CC(O)c2cc3c(F)cc(F)cc3c3cc(C(F)(F)F)ccc23)ccc1O (configuration not stated) | Non-Toxic |

test system: Plasmodium falciparum; test: Effect on female gamete formation in transgenic GFP-fused Plasmodium falciparum NF54 mature stage-5 gametocytes at 1 uM after 72 hrs under reduced oxygen tension by Mitotracker Red CMH2XRos staining based confocal microscopic method; assay type: functional; conditions: not given

| Compound | Activity |
| --- | --- |
| CCN(CC)Cc1cc(/C=N/N=C(\N)CC(O)c2cc3c(F)cc(F)cc3c3cc(C(F)(F)F)ccc23)ccc1O (configuration not stated) | inactive |

test system: Plasmodium berghei; test: Antiplasmodial activity against Plasmodium berghei infected in NMRI mouse assessed as mean survival time at 30 mg/kg, po administered at 4, 24, 48, 72 hrs post infection by Peter's test (reference value: 6 to 7 day); assay type: functional; conditions: not given

| Compound | MST [days] |
| --- | --- |
| C[C@H]1[C@H](OC(=O)CCC(=O)O)O[C@@H]2O[C@@]3(C)CC[C@H]4[C@H](C)CC[C@@H]1[C@@]24OO3 [ARTESUNATE] | 10 |
| CCN(CC)Cc1cc(/C=N/N=C(\N)CC(O)c2cc3c(F)cc(F)cc3c3cc(C(F)(F)F)ccc23)ccc1O (configuration not stated) | 28.3 |

test system: Plasmodium berghei; test: Antiplasmodial activity against Plasmodium berghei infected in NMRI mouse assessed as reduction in parasitemia at 50 mg/kg, po administered at 4, 24, 48, 72 hrs post infection measured on day 4 post infection by Peter's test relative to control; assay type: functional; parameters: scale not given: the % may be the effect or the level left; conditions: not given

| Compound | Activity [%] |
| --- | --- |
| CCN(CC)Cc1cc(/C=N/N=C(\N)CC(O)c2cc3c(Cl)cc(Cl)cc3c3cc(C(F)(F)F)ccc23)ccc1O (configuration not stated) | 99.8 |
| CCN(CC)Cc1cc(/C=N/N=C(\N)CC(O)c2cc3c(F)cc(F)cc3c3cc(C(F)(F)F)ccc23)ccc1O (configuration not stated) | 99.9 |

test system: Plasmodium berghei; test: Antiplasmodial activity against Plasmodium berghei infected in NMRI mouse assessed as parasite free mouse at 10 mg/kg, po administered at 4, 24, 48, 72 hrs post infection measured on day 4 by Peter's test; assay type: functional, organism-based; conditions: not given

| Compound | Activity |
| --- | --- |
| CCN(CC)Cc1cc(/C=N/N=C(\N)CC(O)c2cc3c(F)cc(F)cc3c3cc(C(F)(F)F)ccc23)ccc1O (configuration not stated) | inactive |

test system: Plasmodium falciparum; test: Antiplasmodial activity against chloroquine-sensitive asexual blood stages of Plasmodium falciparum 3D7 after 72 hrs by HRP2-based ELISA; assay type: functional; conditions: 3D7, 72 h

| Compound | IC50 [nM] |
| --- | --- |
| CCN(CC)Cc1cc(/C=N/N=C(\N)CC(O)c2cc3c(Cl)cc(Cl)cc3c3cc(C(F)(F)F)ccc23)ccc1O (configuration not stated) | 6.9 |
| CCN(CC)Cc1cc(/C=N/N=C(\N)CC(O)c2cc3c(F)cc(F)cc3c3cc(C(F)(F)F)ccc23)ccc1O (configuration not stated) | 3.9 |

test system: Plasmodium berghei; test: Antiplasmodial activity against Plasmodium berghei infected in NMRI mouse assessed as parasite-free mouse at 30 mg/kg, po administered at 4, 24, 48, 72 hrs post infection measured on day 30 by Peter's test; assay type: functional, organism-based; conditions: not given

| Compound | Activity |
| --- | --- |
| C[C@H]1[C@H](OC(=O)CCC(=O)O)O[C@@H]2O[C@@]3(C)CC[C@H]4[C@H](C)CC[C@@H]1[C@@]24OO3 [ARTESUNATE] | inactive |
| CCN(CC)Cc1cc(/C=N/N=C(\N)CC(O)c2cc3c(F)cc(F)cc3c3cc(C(F)(F)F)ccc23)ccc1O (configuration not stated) | inactive |

test system: Plasmodium falciparum; test: Effect on male gamete formation in transgenic GFP-fused Plasmodium falciparum NF54 mature stage-5 gametocytes at 1 uM after 72 hrs under reduced oxygen tension by Mitotracker Red CMH2XRos staining based confocal microscopic method; assay type: functional; conditions: not given

| Compound | Activity |
| --- | --- |
| CCN(CC)Cc1cc(/C=N/N=C(\N)CC(O)c2cc3c(F)cc(F)cc3c3cc(C(F)(F)F)ccc23)ccc1O (configuration not stated) | inactive |

test system: Plasmodium falciparum; test: Gametocytocidal activity against transgenic GFP-fused Plasmodium falciparum NF54 early stage gametocytes after 72 hrs by Mitotracker Red CMH2XRos staining based confocal microscopic method; assay type: functional; conditions: NF54, 72 h

| Compound | IC50 [nM] |
| --- | --- |
| CCN(CC)Cc1cc(/C=N/N=C(\N)CC(O)c2cc3c(Cl)cc(Cl)cc3c3cc(C(F)(F)F)ccc23)ccc1O (configuration not stated) | 453 |
| CCN(CC)Cc1cc(/C=N/N=C(\N)CC(O)c2cc3c(F)cc(F)cc3c3cc(C(F)(F)F)ccc23)ccc1O (configuration not stated) | 218 |

test system: Plasmodium berghei; test: Antiplasmodial activity against Plasmodium berghei infected in NMRI mouse assessed as parasite free mouse at 3 mg/kg, po administered at 4, 24, 48, 72 hrs post infection measured on day 4 by Peter's test; assay type: functional, organism-based; conditions: not given

| Compound | Activity |
| --- | --- |
| CCN(CC)Cc1cc(/C=N/N=C(\N)CC(O)c2cc3c(F)cc(F)cc3c3cc(C(F)(F)F)ccc23)ccc1O (configuration not stated) | inactive |

test system: Plasmodium berghei; test: Antiplasmodial activity against Plasmodium berghei infected in NMRI mouse assessed as mean survival time at 50 mg/kg, ip administered at 4, 24, 48, 72 hrs post infection by Peter's test (reference value: 6 to 7 day); assay type: functional; conditions: not given

| Compound | MST [days] |
| --- | --- |
| CCN(CC)Cc1cc(/C=N/N=C(\N)CC(O)c2cc3c(F)cc(F)cc3c3cc(C(F)(F)F)ccc23)ccc1O (configuration not stated) | 30 |

test system: Plasmodium berghei; test: Antiplasmodial activity against Plasmodium berghei infected in NMRI mouse assessed as reduction in parasitemia at 50 mg/kg, ip administered at 4, 24, 48, 72 hrs post infection measured on day 4 post infection by Peter's test relative to control; assay type: functional; parameters: scale not given: the % may be the effect or the level left; conditions: not given

| Compound | Activity [%] |
| --- | --- |
| CCN(CC)Cc1cc(/C=N/N=C(\N)CC(O)c2cc3c(F)cc(F)cc3c3cc(C(F)(F)F)ccc23)ccc1O (configuration not stated) | 99.8 |

test system: Plasmodium berghei; test: Antiplasmodial activity against Plasmodium berghei infected in NMRI mouse assessed as reduction in parasitemia at 10 mg/kg, po administered at 4, 24, 48, 72 hrs post infection measured on day 4 by Peter's test relative to control; assay type: functional; parameters: scale not given: the % may be the effect or the level left; conditions: not given

| Compound | Activity [%] |
| --- | --- |
| CCN(CC)Cc1cc(/C=N/N=C(\N)CC(O)c2cc3c(F)cc(F)cc3c3cc(C(F)(F)F)ccc23)ccc1O (configuration not stated) | 99.4 |

test system: Plasmodium berghei; test: Antiplasmodial activity against Plasmodium berghei infected in NMRI mouse assessed as parasite-free mouse at 50 mg/kg, po administered at 4, 24, 48, 72 hrs post infection measured on day 30 by Peter's test; assay type: functional, organism-based; conditions: not given

| Compound | Activity |
| --- | --- |
| CCN(CC)Cc1cc(/C=N/N=C(\N)CC(O)c2cc3c(Cl)cc(Cl)cc3c3cc(C(F)(F)F)ccc23)ccc1O (configuration not stated) | inactive |

test system: not listed separately; test: Selectivity index, ratio of IC50 for human HepG2 cells to IC50 for chloroquine-sensitive asexual blood stages of Plasmodium falciparum 3D7; assay type: toxicity; conditions: read-out: Ratio IC50

| Compound | selectivity ratio |
| --- | --- |
| CCN(CC)Cc1cc(/C=N/N=C(\N)CC(O)c2cc3c(Cl)cc(Cl)cc3c3cc(C(F)(F)F)ccc23)ccc1O (configuration not stated) | 6200 |
| CCN(CC)Cc1cc(/C=N/N=C(\N)CC(O)c2cc3c(F)cc(F)cc3c3cc(C(F)(F)F)ccc23)ccc1O (configuration not stated) | 3440 |

test system: Plasmodium berghei; test: Antiplasmodial activity against Plasmodium berghei infected in NMRI mouse assessed as mean survival time at 10 mg/kg, po administered at 4, 24, 48, 72 hrs post infection measured on day 4 by Peter's test (reference value: 6 to 7 day); assay type: functional; conditions: not given

| Compound | MST [days] |
| --- | --- |
| CCN(CC)Cc1cc(/C=N/N=C(\N)CC(O)c2cc3c(F)cc(F)cc3c3cc(C(F)(F)F)ccc23)ccc1O (configuration not stated) | 10 |

test system: HepG2; test: Cytotoxicity against human HepG2 cells by CellTiterGlo assay; assay type: cell-based; conditions: not given

| Compound | IC50 [µM] |
| --- | --- |
| CCN(CC)Cc1cc(/C=N/N=C(\N)CC(O)c2cc3c(Cl)cc(Cl)cc3c3cc(C(F)(F)F)ccc23)ccc1O (configuration not stated) | 42.8 |
| CCN(CC)Cc1cc(/C=N/N=C(\N)CC(O)c2cc3c(F)cc(F)cc3c3cc(C(F)(F)F)ccc23)ccc1O (configuration not stated) | 13.4 |

test system: Plasmodium falciparum; test: Antiplasmodial activity against multidrug-resistant asexual blood stages of Plasmodium falciparum Dd2 after 72 hrs by HRP2-based ELISA; assay type: functional; conditions: Dd2, 72 h

| Compound | IC50 [nM] |
| --- | --- |
| CCN(CC)Cc1cc(/C=N/N=C(\N)CC(O)c2cc3c(Cl)cc(Cl)cc3c3cc(C(F)(F)F)ccc23)ccc1O (configuration not stated) | 13.8 |
| CCN(CC)Cc1cc(/C=N/N=C(\N)CC(O)c2cc3c(F)cc(F)cc3c3cc(C(F)(F)F)ccc23)ccc1O (configuration not stated) | 6.1 |

test system: Plasmodium berghei; test: Antiplasmodial activity against Plasmodium berghei infected in NMRI mouse assessed as reduction in parasitemia at 3 mg/kg, po administered at 4, 24, 48, 72 hrs post infection measured on day 4 by Peter's test relative to control; assay type: functional; parameters: scale not given: the % may be the effect or the level left; conditions: not given

| Compound | Activity [%] |
| --- | --- |
| CCN(CC)Cc1cc(/C=N/N=C(\N)CC(O)c2cc3c(F)cc(F)cc3c3cc(C(F)(F)F)ccc23)ccc1O (configuration not stated) | <40 |

molecular target: Voltage-gated inwardly rectifying potassium channel KCNH2 (Homo sapiens, UniProt Q12809); test: Inhibition of human ERG by fluorescence polarization assay; conditions: not given
Sequence (Q12809 whole entry): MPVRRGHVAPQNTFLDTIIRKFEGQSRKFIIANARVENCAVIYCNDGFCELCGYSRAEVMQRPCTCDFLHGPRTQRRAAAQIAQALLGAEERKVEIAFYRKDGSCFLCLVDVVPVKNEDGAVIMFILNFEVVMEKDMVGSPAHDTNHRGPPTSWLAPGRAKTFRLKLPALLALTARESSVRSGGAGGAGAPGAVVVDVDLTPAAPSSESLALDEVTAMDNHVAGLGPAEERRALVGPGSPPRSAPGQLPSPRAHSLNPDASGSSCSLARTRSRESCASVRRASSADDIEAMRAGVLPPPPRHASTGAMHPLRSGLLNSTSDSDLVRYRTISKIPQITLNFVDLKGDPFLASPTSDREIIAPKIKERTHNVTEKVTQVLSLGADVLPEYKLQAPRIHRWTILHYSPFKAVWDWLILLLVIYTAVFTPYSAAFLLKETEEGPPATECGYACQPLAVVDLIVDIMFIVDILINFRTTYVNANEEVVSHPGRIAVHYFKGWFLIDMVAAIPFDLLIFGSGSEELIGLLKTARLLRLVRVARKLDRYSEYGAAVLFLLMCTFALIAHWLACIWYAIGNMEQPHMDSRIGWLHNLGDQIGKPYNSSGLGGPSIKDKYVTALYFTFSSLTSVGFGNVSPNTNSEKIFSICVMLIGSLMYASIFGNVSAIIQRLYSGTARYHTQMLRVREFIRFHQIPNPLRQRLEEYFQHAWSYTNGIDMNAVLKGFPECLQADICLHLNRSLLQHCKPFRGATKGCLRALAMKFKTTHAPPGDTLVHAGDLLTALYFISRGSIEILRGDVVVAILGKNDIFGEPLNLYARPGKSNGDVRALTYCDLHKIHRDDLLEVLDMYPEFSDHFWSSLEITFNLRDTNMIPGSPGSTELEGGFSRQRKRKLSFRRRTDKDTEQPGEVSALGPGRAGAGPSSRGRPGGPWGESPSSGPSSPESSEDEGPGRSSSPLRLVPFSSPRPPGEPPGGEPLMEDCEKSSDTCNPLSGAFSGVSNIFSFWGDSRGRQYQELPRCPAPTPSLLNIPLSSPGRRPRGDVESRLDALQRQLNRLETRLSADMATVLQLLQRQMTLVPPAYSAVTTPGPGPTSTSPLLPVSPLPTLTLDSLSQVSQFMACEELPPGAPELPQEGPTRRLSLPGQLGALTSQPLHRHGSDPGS

| Compound | IC50 [nM] |
| --- | --- |
| CCN(CC)Cc1cc(/C=N/N=C(\N)CC(O)c2cc3c(F)cc(F)cc3c3cc(C(F)(F)F)ccc23)ccc1O (configuration not stated) | 390 |

test system: Plasmodium berghei; test: Antiplasmodial activity against Plasmodium berghei infected in NMRI mouse assessed as mean survival time at 50 mg/kg, po administered at 4, 24, 48, 72 hrs post infection by Peter's test (reference value: 6 to 7 day); assay type: functional; conditions: not given

| Compound | MST [days] |
| --- | --- |
| CCN(CC)Cc1cc(/C=N/N=C(\N)CC(O)c2cc3c(Cl)cc(Cl)cc3c3cc(C(F)(F)F)ccc23)ccc1O (configuration not stated) | 23 |
| CCN(CC)Cc1cc(/C=N/N=C(\N)CC(O)c2cc3c(F)cc(F)cc3c3cc(C(F)(F)F)ccc23)ccc1O (configuration not stated) | 29.7 |
